Assay results as given in patent US11414439B2, “Modulators of cystic fibrosis transmembrane conductance regulator, pharmaceutical compositions, methods of treatment, and process for making the modulator” (Vertex Pharmaceuticals Incorporated, priority 2018, dated 2022).
Further: key: Active; ND-not detected.

The molecules below were run on CFTR (assay: CFTR modulating activity (Table 6; one or more of the disclosed assays, e.g. enteroid membrane potential dye assay)). Conditions: generated using one or more of the assays disclosed herein.
Assay type: cell-based, human
Excerpt: Human intestinal epithelial enteroid cells may be obtained from the Hubrecht Institute for Developmental Biology and Stem Cell Research, Utrecht, The Netherlands and expanded in T-Flasks as previously described (Dekkers J F, Wiegerinck C L, de Jonge H R, Bronsveld I, Janssens H M, de Winter-de Groot K M, Brandsma A M, de Jong N W M, Bijvelds M J C, Scholte B J, Nieuwenhuis E E S, van den Brink S, Clevers H, van der Ent C K, Middendorp S and M Beekman J M. A functional CFTR assay using primary cystic fibrosis intestinal organoids. Nat Med. 2013 July; 19(7):939-45).
Cells may be recovered in cell recovery solution, collected by centrifugation at 650 rpm for 5 min at 4° C., resuspended in TryPLE and incubated for 5 min at 37° C. Cells can then be collected by centrifugation at 650 rpm for 5 min at 4° C. and resuspended in IEMM containing 10 μM ROCK inhibitor (RI). The cell suspension is then passed through a 40 μm cell strainer and resuspended at 1×10^6 cells/mL in IEMM containing 10 μM RI. Cells may be seeded at 5000 cells/well into multi-well plates and incubated for overnight at 37° C., 95% humidity and 5% CO2 prior to assay.
Enteroid cells may be incubated with test compound in IEMM for 18-24 hours at 37° C., 95% humidity and 5% CO2. Following compound incubations, a membrane potential dye assay can be employed using a FLIPR Tetra to directly measure the potency and efficacy of the test compound on CFTR-mediated chloride transport following acute addition of 10 μM forskolin and 300 nM N-[2,4-bis(1,1-dimethylethyl)-5-hydroxyphenyl]-1,4-dihydro-4-oxoquinoline-3-carboxamide. Briefly, cells are washed 5 times in Bath 1 Buffer. Bath 1 Dye Solution is added and the cells are incubated for 25 min at room temperature. Following dye incubation, cells are washed 3 times in Chloride Free Dye Solution. Chloride transport is initiated by addition of Chloride Free Dye Stimulation Solution and the fluorescence signal is read for 15 min. The CFTR-mediated chloride transport for each condition may be determined from the AUC of the fluorescence response to acute forskolin and 300 nM N-[2,4-bis(1,1-dimethylethyl)-5-hydroxyphenyl]-1,4-dihydro-4-oxoquinoline-3-carboxamide stimulation.
Chloride transport may be expressed as a percentage of the chloride transport following treatment with one or more reference standards or positive controls. Suitable reference standards/controls include one or more of Compound II, Compound III, Compound IV, and Compound A. Compound A is:
Table 6 confirms CFTR modulating activity for representative compounds of the invention generated using one or more of the assays disclosed herein.
For `Cc1nn(C)cc1S(=O)(=O)NC(=O)c1ccc(-n2ccc([Si](C)(C)C(C)(C)C)n2)nc1N1C[C@@H](C)CC1(C)C` [Compound (2-10), 6-[3-[tert-Butyl(dimethyl)silyl]pyrazol-1-yl]-N-(1,3-dimethylpyrazol-4-yl)sulfonyl-2-[(4S)-2,2,4-trimethylpyrrolidin-1-yl]pyridine-3-carboxamide], the “CFTR Modulating Activity” value was “Active”. `Cc1nn(C)cc1S(=O)(=O)NC(=O)c1ccc(-n2ccc(OC[Si](C)(C)C)n2)nc1N1C[C@@H](C)CC1(C)C` [Compound (2-3), N-(1,3-Dimethylpyrazol-4-yl)sulfonyl-2-[(4S)-2,2,4-trimethylpyrrolidin-1-yl]-6-[3-(trimethylsilylmethoxy)pyrazol-1-yl]pyridine-3-carboxamide] was tested, and the “CFTR Modulating Activity” value was “Active”. With `Cc1nn(C)cc1S(=O)(=O)NC(=O)c1ccc(-n2ccc(OC[Si](C)(C)C(C)(C)C)n2)nc1N1C[C@@H](C)CC1(C)C` [Compound (2-11), 6-[3-[[tert-Butyl(dimethyl)silyl]methoxy]pyrazol-1-yl]-N-(1,3-dimethylpyrazol-4-yl)sulfonyl-2-[(4S)-2,2,4-trimethylpyrrolidin-1-yl]pyridine-3-carboxamide] the “CFTR Modulating Activity” value was “Active”. `Cc1nn(C)cc1S(=O)(=O)NC(=O)c1ccc(-n2ccc(OCC(C)(C)C(F)(F)F)n2)nc1N1CC([Si](C)(C)C)CC1(C)C` (single isomer, unassigned) [(2-8) Enantiomer 2] was tested, and the “CFTR Modulating Activity” value was “Active”. For `Cc1nn(C)cc1S(=O)(=O)NC(=O)c1ccc([Si](C)(C)C)nc1N1C[C@@H](C)CC1(C)C` [Compound (2-5), N-(1,3-dimethylpyrazol-4-yl)sulfonyl-2-[(4S)-2,2,4-trimethylpyrrolidin-1-yl]-6-trimethylsilyl-pyridine-3-carboxamide], the “CFTR Modulating Activity” value was “Active”. For `Cc1nn(C)cc1S(=O)(=O)NC(=O)c1ccc(-n2ccc([Si](C)(C)CCC(F)(F)F)n2)nc1N1C[C@@H](C)CC1(C)C` [Compound (2-7), N-(1,3-Dimethylpyrazol-4-yl)sulfonyl-6-[3-[dimethyl(3,3,3-trifluoropropyl)silyl]pyrazol-1-yl]-2-[(4S)-2,2,4-trimethylpyrrolidin-1-yl]pyridine-3-carboxamide], the “CFTR Modulating Activity” value was “Active”. `Cc1nn(C)cc1S(=O)(=O)NC(=O)c1ccc(-n2ccc(OCCC[Si](C)(C)C)n2)nc1N1C[C@@H](C)CC1(C)C` [Compound (2-6), N-(1,3-Dimethylpyrazol-4-yl)sulfonyl-2-[(4S)-2,2,4-trimethylpyrrolidin-1-yl]-6-[3-(3-trimethylsilylpropoxy)pyrazol-1-yl]pyridine-3-carboxamide] was tested, and the “CFTR Modulating Activity” value was “Active”. `Cc1nn(C)cc1S(=O)(=O)NC(=O)c1ccc(-n2ccc(OCC(C)(C)C(F)(F)F)n2)nc1N1C[C@@H](C)CC1(C)[Si](C)(C)C` (single isomer, unassigned) [(2-9) Stereoisomer 1] was tested, and the “CFTR Modulating Activity” value was “Active”. `Cc1nn(C)cc1S(=O)(=O)NC(=O)c1ccc(-n2ccc([Si](C)(C)C)n2)nc1N1C[C@@H](C)CC1(C)C` [Compound (2-12), N-(1,3-Dimethylpyrazol-4-yl)sulfonyl-2-[(4S)-2,2,4-trimethylpyrrolidin-1-yl]-6-(3-trimethylsilylpyrazol-1-yl)pyridine-3-carboxamide] was tested, and the “CFTR Modulating Activity” value was “Active”. `Cc1nn(C)cc1S(=O)(=O)NC(=O)c1ccc(-n2ccc(OCC[Si](C)(C)C)n2)nc1N1C[C@@H](C)CC1(C)C` [Compound (2-4), N-(1,3-dimethylpyrazol-4-yl)sulfonyl-2-[(4S)-2,2,4-trimethylpyrrolidin-1-yl]-6-[3-(2-trimethylsilylethoxy)pyrazol-1-yl]pyridine-3-carboxamide] was tested, and the “CFTR Modulating Activity” value was “Active”. For `Cc1nn(C)cc1S(=O)(=O)NC(=O)c1ccc(-n2ccc([Si](C)(C)CCC(C)(C)C)n2)nc1N1C[C@@H](C)CC1(C)C` [Compound (2-1), 6-[3-[3,3-Dimethylbutyl(dimethyl)silyl]pyrazol-1-yl]-N-(1,3-dimethylpyrazol-4-yl)sulfonyl-2-[(4S)-2,2,4-trimethylpyrrolidin-1-yl]pyridine-3-carboxamide], the “CFTR Modulating Activity” value was “Active”. For `Cc1nn(C)cc1S(=O)(=O)NC(=O)c1ccc(-n2ccc(OCCC3([Si](C)(C)C)CC3)n2)nc1N1C[C@@H](C)CC1(C)C` [Compound (2-2), N-(1,3-dimethylpyrazol-4-yl)sulfonyl-2-[(4S)-2,2,4-trimethylpyrrolidin-1-yl]-6-[3-[2-(1-trimethylsilylcyclopropyl)ethoxy]pyrazol-1-yl]pyridine-3-carboxamide], the “CFTR Modulating Activity” value was “Active”.
